# In US11352352B2, “Aminopyrimidine compound, preparation method therefor and use thereof” (BEIJING ADAMADLE BIOTECHNOLOGY LIMITED LIABILITY COMPANY, priority 2017, dated 2022):
# Tests used:
# [1] = tested on: NCI-H1975; test: Cell proliferation inhibition experiment, CellTiter-Glo (CTG) method; format: cell-based; settings: for IC50: NCI-H1975 cells, CTG, 3 days; for A-431/NCI-H1975 Selectivity: ratio of A-431 IC50 to NCI-H1975 IC50
# Procedure, shortened: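 NCI-H1975 cells with viability above 90% by trypan blue were seeded at 90 μL per well in black 96-well plates and incubated overnight at 37° C., 5% CO2. Compounds were added at nine concentrations in triplicate, and viability was measured with CellTiter-Glo luminescence on EnVision. IC50 came from non-linear S-curve fitting in GraphPad Prism 5.0.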
# [2] = tested on: PC-9; test: as above; format: cell-based; settings: PC-9 cells, 3 days
# Procedure, shortened: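 Cells in log-phase growth (viability above 90% by trypan blue) were seeded at 90 μL per well in black-walled, clear-bottom 96-well plates and incubated overnight at 37° C., 5% CO2. A T0 plate was read the next day. Test compounds were added at nine concentrations in triplicate with a solvent control. Viability was measured by CellTiter-Glo luminescence on EnVision, and IC50 came from non-linear S-curve fitting in GraphPad Prism 5.0.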
# [3] = tested on: A-431; test: as above; format: cell-based; settings: A-431 cells, 3 days
# Procedure, shortened: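 Log-phase cells (viability >90%) were plated and incubated overnight, then dosed in triplicate across nine 3-fold concentrations. The top dose was 30 μM on A-431 and 1.111 μM on NCI-H1975 and PC-9. Survival after 3 days was measured by CellTiter-Glo and IC50 derived by non-linear regression.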
# [4] = biological target: T1, P-gp (Homo sapiens, UniProt P08183); test: P-gp substrate evaluation experiment (MDCKII-MDR1 Transwell drug penetration test); format: in vitro ADME; settings: dog, MDCK-MDR1, pH 7.4; read-out: ER (Efflux Ratio)
# T1 construct: expressed in transfected cells; host or cells: MDCKII-MDR1 (MDCKII canine kidney cells expressing MDR1)
# T1 sequence (P08183 whole entry): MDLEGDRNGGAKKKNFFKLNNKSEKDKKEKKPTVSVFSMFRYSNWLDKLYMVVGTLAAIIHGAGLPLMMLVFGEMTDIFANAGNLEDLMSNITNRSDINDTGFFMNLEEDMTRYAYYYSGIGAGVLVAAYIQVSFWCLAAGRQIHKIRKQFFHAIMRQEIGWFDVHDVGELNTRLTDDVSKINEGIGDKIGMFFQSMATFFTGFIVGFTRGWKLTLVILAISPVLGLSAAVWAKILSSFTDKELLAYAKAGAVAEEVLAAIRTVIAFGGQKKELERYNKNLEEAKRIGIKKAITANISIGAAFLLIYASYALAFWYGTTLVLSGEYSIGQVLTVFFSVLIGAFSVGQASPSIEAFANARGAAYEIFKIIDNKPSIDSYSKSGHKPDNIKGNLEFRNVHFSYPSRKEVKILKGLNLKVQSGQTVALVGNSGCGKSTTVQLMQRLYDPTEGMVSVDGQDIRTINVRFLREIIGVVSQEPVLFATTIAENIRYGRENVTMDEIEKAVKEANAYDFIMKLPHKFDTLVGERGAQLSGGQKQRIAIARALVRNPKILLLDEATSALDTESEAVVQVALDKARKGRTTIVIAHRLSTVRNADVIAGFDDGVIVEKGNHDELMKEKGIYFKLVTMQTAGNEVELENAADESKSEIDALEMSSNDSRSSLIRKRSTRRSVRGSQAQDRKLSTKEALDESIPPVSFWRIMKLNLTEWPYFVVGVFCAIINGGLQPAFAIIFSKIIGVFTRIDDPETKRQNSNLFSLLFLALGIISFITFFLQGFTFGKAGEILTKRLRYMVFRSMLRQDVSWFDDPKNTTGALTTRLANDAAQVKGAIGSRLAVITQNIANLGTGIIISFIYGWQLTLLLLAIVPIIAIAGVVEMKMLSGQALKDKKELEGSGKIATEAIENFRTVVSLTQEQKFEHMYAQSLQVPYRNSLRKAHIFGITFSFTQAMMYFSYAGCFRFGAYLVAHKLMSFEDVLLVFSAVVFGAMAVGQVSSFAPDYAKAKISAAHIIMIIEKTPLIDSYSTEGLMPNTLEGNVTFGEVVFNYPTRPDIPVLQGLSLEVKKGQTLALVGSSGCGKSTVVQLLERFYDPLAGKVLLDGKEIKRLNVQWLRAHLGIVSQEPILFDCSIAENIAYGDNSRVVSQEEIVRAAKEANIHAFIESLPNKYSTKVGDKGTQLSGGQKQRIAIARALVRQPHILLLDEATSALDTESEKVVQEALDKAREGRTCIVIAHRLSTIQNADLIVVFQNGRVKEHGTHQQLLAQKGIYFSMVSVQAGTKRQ
# Procedure: P-gp Substrate Evaluation Experiment
# Cell Culture • 1) High glucose DMEM medium containing L-glutamine was used and 10% fetal bovine serum, 0.1 mg/mL streptomycin and 0.6 mg/mL penicillin were added. • 2) MDCKII-MDR1 was cultured in a T-75 cell culture bottle. The incubator was set at the condition of 37° C., 5% CO2 and 95% relative humidity. Cells could be inoculated in Transwell when the cell confluence reached 70-90%. • 3) Before cell plant, 50 μL cell culture medium was added to each well in the upper chamber of the Transwell, and […] cell culture medium was added to the lower chamber of the Transwell.
# Inoculation of MDCKII-MDR1 Cells • 1) Cell suspension was added to the upper chamber of the 96-well Transwell plate with […] each well, and the final inoculation density was 5.45×10^5 cells/cm^2. • 2) The medium was changed 48 hours after inoculation, the culture was carried out for 4-7 days, and the medium was changed every other day.
# Evaluation of Cell Monolayer Integrity • 1) After 4-7 days of culture, MDCKII-MDR1 and MDKII should merge and differentiate completely. At this time, they could be applied to penetration test. • 2) The resistance of cell monolayer was measured by a resistance meter (Millipore, USA) and the resistance of each well was recorded. • 3) After finishing the detection, the Transwell plate was put back into the incubator. • 4) Resistance value was calculated: Resistance measured (ohms)×layer area (cm^2)=TEER value (ohm·cm^2)
# If TEER value was less than 42 ohms·cm^2, the well can not be used for penetration testing.
# Drug Penetration Test • 1) The MDCKII-MDR1 Transwell plate was taken out from the incubator. The cell monolayer was rinsed with HBSS buffer (25 mM HEPES, pH 7.4) twice and incubated for 30 minutes at 37° C. • 2) The transport rate of compounds from the top to the bottom was determined. […] 70 μL supernatant was drawn, diluted with equal volume of water and then subjected to LC-MS/MS analysis. All samples were prepared in three parallel ways. • 6) The cell monolayer integrity after 2-hour incubation was evaluated by leakage of fluorescent yellow, HBSS (25 mM HEPES, pH 7.4) was used to dilute the stock solution of fluorescent yellow till the final concentration was 100 μM. 100 μL fluorescent yellow solution was added to each well in the upper chamber of the Transwell plate and 300 μL HBSS (25 mM HEPES, pH 7.4) was added to each well in the lower chamber of the Transwell plate. After incubation at 37° C. for 30 minutes, 80 μL solution was drawn respectively from each well in the upper and lower chamber to a new 96-well plate. The fluorescence was determined at 485 nm as excitation wavelength and 530 nm as emission wavelength by using a microplate reader.
# Data calculation was carried out through Excel, the apparent permeability index (Papp, cm/s) of compounds was calculated through the formula shown as follow: […]
# wherein, the membrane area in the formula is the membrane area of Transwell-96 plate (0.143 cm^2); the unit of incubation time is second (s).
# Efflux ratio was calculated through the formula shown as follow: […]
Structure (SMILES),"IC50 ([1]; Homo sapiens, NCI-H1975, 72 h) [nM]","IC50 ([2]; Homo sapiens, PC-9, 72 h) [nM]","IC50 ([3]; Homo sapiens, A-431, 72 h) [nM]",efflux ratio at 2 h [4],IC50 [1] [nM],IC50 [2] [nM],IC50 [3] [nM],A-431/NCI-H1975 Selectivity [1]
C=CC(=O)Nc1cc(Nc2nccc(-c3ccc4c(cnn4C)c3)n2)c(OC)cc1N(C)CCN(C)C [compound 3],4.1,7.9,491,5.87,–,–,–,120.3
C=CC(=O)Nc1cc(Nc2cc(-c3ccc4c(cnn4C)c3)ncn2)c(OC)cc1N1CCN(C)CC1 [compound 8],3.5,27.3,872,3.14,–,–,–,251.1
C=CC(=O)Nc1cc(Nc2cc(-c3ccc4c(cnn4C)c3)ncn2)c(OC)cc1N1CC(C)N(C)C(C)C1 (stereo not drawn) [compound 23],13.7,9,617,4.28,–,–,–,45.0
C=CC(=O)Nc1cc(Nc2cc(-c3ccc4c(cnn4C)c3)ncn2)c(OC)cc1N1C[C@@H](C)N(C)[C@@H](C)C1 [compound 24],11.8,8.1,1060,1.05,–,–,–,90.1
C=CC(=O)Nc1cc(Nc2cc(-c3ccc4c(cnn4C)c3)ncn2)c(OC)cc1N1CCC(N(C)C)CC1 [compound 26],10.4,9.1,216,5.79,–,–,–,20.7
C=CC(=O)Nc1cc(Nc2cc(-c3ccc4c(cnn4C)c3)ncn2)c(OC)cc1N1CCC(N2CCOCC2)CC1 [compound 27],–,–,–,1.67,14.2,21.6,387,27.2
C=CC(=O)Nc1cc(Nc2cc(-c3ccc4c(cnn4C)c3)ncn2)c(OC)cc1N1CCC(N2CCN(C)CC2)CC1 [compound 33],5.6,8.2,813,7.7,–,–,–,145.7
C=CC(=O)Nc1cc(Nc2cc(-c3ccc4c(cnn4C)c3)ncn2)c(OC)cc1N1CCC(C2CCN(C)CC2)CC1 [compound 34],26.3,10.7,1950,6.12,–,–,–,74.1
C=CC(=O)Nc1cc(Nc2cc(-c3ccc4c(cnn4C)c3)ncn2)c(OC)cc1N(C)CCN1CCN(C)CC1 [compound 60],10.6,9.6,2300,6.49,–,–,–,217.0
C=CC(=O)Nc1cc(Nc2cc(-c3ccc4c(cnn4C)c3)ncn2)c(OC)cc1N(C)CCN(CC)CC [compound 62],33.5,15.7,1170,2.44,–,–,–,35.0
C=CC(=O)Nc1cc(Nc2nccc(-c3ccc4c(cnn4C)c3)n2)c(OC)cc1N1CCC(N2CCCC2)CC1 [compound 68],14.7,15.3,921,8.98,–,–,–,62.7

# Continued, in another order:
"IC50 ([1]; Homo sapiens, NCI-H1975, 72 h) [nM]","IC50 ([2]; Homo sapiens, PC-9, 72 h) [nM]","IC50 ([3]; Homo sapiens, A-431, 72 h) [nM]",efflux ratio at 2 h [4],IC50 [1] [nM],IC50 [2] [nM],IC50 [3] [nM],Structure (SMILES),A-431/NCI-H1975 Selectivity [1]
17.6,14.7,1160,41.4,–,–,–,C=CC(=O)Nc1cc(Nc2cc(-c3ccc4c(cnn4C)c3)ncn2)c(OC)cc1N(C)C1CCN(C2CCN(C)CC2)CC1 [compound 70],66.1
9.8,43.2,886,1.54,–,–,–,C=CC(=O)Nc1cc(Nc2cc(-c3ccc4c(cnn4C)c3)ncn2)c(OC)cc1N1CCN(CCOC)CC1 [compound 99],90.4
5.7,15.3,654,20,–,–,–,C=CC(=O)Nc1cc(Nc2cc(-c3ccc4c(cnn4C)c3)ncn2)c(OC)cc1N1CCC(N2C[C@@H](C)N(C)[C@@H](C)C2)CC1 [compound 100],114.7
8,19.2,648,2.28,–,–,–,C=CC(=O)Nc1cc(Nc2cc(-c3ccc4c(cnn4C)c3)ncn2)c(OC)cc1N1CCC(N2C[C@@H](C)O[C@@H](C)C2)CC1 [compound 103],81.0
6,14.2,544,3.12,–,–,–,C=CC(=O)Nc1cc(Nc2cc(-c3ccc4c(cnn4C)c3)ncn2)c(OC)cc1OCCN(C)C [compound 104],90.6
3.2,5.7,567,18.1,–,–,–,C=CC(=O)Nc1cc(Nc2cc(-c3ccc4c(cnn4C)c3)ncn2)c(OC)cc1N1CCC(N2CCCC2)CC1 [compound 108],177.3
5.3,9,533,41.9,–,–,–,C=CC(=O)Nc1cc(Nc2cc(-c3ccc4c(cnn4C)c3)ncn2)c(OC(F)F)cc1N1CCN(CCN(C)C)CC1 [compound 115],100.5
9.1,8.2,654,67.9,–,–,–,C=CC(=O)Nc1cc(Nc2cc(-c3ccc4c(cnn4CC)c3)ncn2)c(OC)cc1N1CCN(CCN(C)C)CC1 [compound 116],71.9
12.2,24.1,1040,–,–,–,–,C=CC(=O)Nc1cc(Nc2cc(-c3ccc4c(cnn4C)c3)ncn2)c(OCC)cc1N(C)CCN(C)C [compound 289],85.1
30.8,36.5,1630,–,–,–,–,C=CC(=O)Nc1cc(Nc2nccc(-c3ccc4c(cnn4C)c3)n2)c(OC)cc1C(=O)N(C)CCN(C)C [compound 290],52.9
89.5,54.3,2730,–,–,–,–,C=CC(=O)Nc1cc(Nc2cc(-c3ccc4c(cnn4C)c3)ncn2)c(OC2CC2)cc1N(C)CCN(C)C [compound 291],30.6
90.4,64.7,2980,–,–,–,–,C=CC(=O)Nc1cc(Nc2nccc(-c3ccc4c(cnn4C)c3)n2)c(OC2CC2)cc1N(C)CCN(C)C [compound 292],32.9
79.6,54.2,2730,–,–,–,–,C=CC(=O)Nc1cc(Nc2cc(-c3ccc4c(cnn4C)c3)ncn2)c(OC)cc1N(C)C1CCN(C(C)=O)CC1 [compound 293],34.3
71.3,44.9,4580,–,–,–,–,C=CC(=O)Nc1cc(Nc2cc(-c3ccc4c(cnn4C)c3)ncn2)c(OC)cc1CN1CCN(C)CC1 [compound 294],64.2
90.7,121,1440,–,–,–,–,"C=CC(=O)Nc1cccc(Nc2nc(Nc3ccc4c(cnn4C)c3)ncc2F)c1 [known compound 296, reference compound]",15.9
